# Where two headings read alike, the source gives them in different places.
# How the values were obtained:
# FTase [1] = target: T1, FTase (Homo sapiens, UniProt P49354+P49356); test: in vitro inhibition of FTase by farnesylated monophosphates; format: biochemical
# FTase [2] = target: T1, FTase; conditions: background, have been shown; cited from earlier work
# [3] = read-out: IC50 for inhibition of FTase
IC50 (FTase [1]; [3]) [nM],SMILES,"inhibition of FTase, described in words (FTase [2])",further results
,"CC(C)=CCCC(C)=CCCC(=CCOP(=O)(O)O)CC=C(C)C [3-(3,3-dimethylallyl)farnesyl monophosphate]",,"IC50 (FTase [1]; highest dose tested 10 uM, read-out: IC50 for inhibition of FTase (not showing 50% inhibition at the highest dose tested)): > 10000 nM"
~11,"C=CCC(=CCOP(=O)(O)O)CCC=C(C)CCC=C(C)C [3-Allylfarnesyl monophosphate, 3-allylfarnesyl monophosphate]",,
~16,CC(C)=CCCC(C)=CCCC(=CCOP(=O)(O)O)C(C)(C)C [3-t-butylfarnesyl monophosphate],,
,"CC(C)=CCCC(C)=CCCC(=CCOP(=O)(O)OP(=O)(O)O)CC=C(C)C [pyrophosphate of 3-(3,3-dimethylallyl)farnesol]",protein-selective inhibitor,
,C=CCC(=CCOP(=O)(O)OP(=O)(O)O)CCC=C(C)CCC=C(C)C [pyrophosphate of 3-allylfarnesol],nanomolar inhibitors,
,CC(C)=CCCC(C)=CCCC(=CCOP(=O)(O)OP(=O)(O)O)C(C)(C)C [pyrophosphate of 3-t-butylfarnesol],nanomolar inhibitors,

# — patent publication US8324378B2, “Prodrugs and conjugates of prenylation inhibitors” (Purdue Research Foundation, priority 2007, dated 2012)
